Experimental data: US20220010279A1, “KITS AND METHODS FOR PERFORMING OPTICAL DYNAMIC CLAMP ON EXCITABLE CELLS” (CORNELL UNIVERSITY, priority 2018, published 2022)

Tested on: iPSC-CMs
Assay: Paced action potentials (perforated patch clamp; control, EDC or ODC with added IK1) after E-4031 addition
Type: cell-based, human
Conditions: for APD90 after E-4031 addition: 500 nM E-4031 perfused 2 minutes, all cells, FIG. 7A
Procedure: Cor.4U hiPSC-CMs (Axiogenesis, Cologne, Germany) were thawed, seeded, and maintained according to the protocols provided by the manufacturer. The cells were seeded on 0.5% gelatin-coated 8 mm coverslips and plated at 100,000 cells/mL. Cells were incubated for at least 7 days post thaw prior to use for experiments.
Adenoviral vector was constructed using the Addgene (Cambridge, Mass.) plasmid pAAV-CAG-ArchT-GFP, deposited by K. Deisseroth's laboratory (plasmid 20940) (Ambrosi C M, et al. Methods Mol Biol. 2014, 1181:215-28; Yu J, et al. Methods Mol Biol. 2016, 1408:303-17). ArchT was expressed in iPSC-CMs using MOIs of 250-300, as described in previously published protocols using an adenovirus (Ambrosi C M, et al. Methods Mol Biol. 2014, 1181:215-28; Yu J, et al. Methods Mol Biol. 2016, 1408:303-1). Determination of successful infection was confirmed via eGFP fluorescence. Functionality of ArchT was confirmed by illuminating the cells with an LED (M565L3, ThorLabs) at 595 nm through a 40× objective and observing the amount of hyperpolarization of the membrane potential under current clamp. Stability of IArchT was measured with a voltage and light clamp protocol over time to investigate rundown with ArchT illumination (FIGS. 18A-18B).
Borosilicate glass pipettes were pulled to a resistance of 1-3 MΩ using a flaming/brown micropipette puller (Model P-1000, Sutter Instrument). The pipettes were filled with intracellular solution containing (mM) 10 NaCl, 130 KCl, 1 MgCl2, 10 CaCl2, 5.5 Dextrose, 10 HEPES. For perforated patch, the pipette was first backfilled by dipping the pipette tip into the intracellular solution for 10 seconds. Only the very tip contained the intracellular solution without any gramicidin to minimize the amount of gramicidin exiting the pipette prior to obtaining a giga-ohm seal. The pipette was then filled with the intracellular solution containing 8 μg/mL gramicidin passed through a 0.25 μm filter. […] The high calcium concentration in the intracellular pipette solution serves to verify the integrity of the patch as patch rupture under these conditions would lead to immediate cell contracture (Ishihara K, et al. J Physiol. 2004, 540(3):831-41). The coverslips containing iPSC-CMs were placed in the bath and constantly perfused with an extracellular solution at 37° C. containing (mM) 137 NaCl, 5.4 KCl, 1 MgSO4, 2 CaCl2, 10 Dextrose, 10 HEPES. GFP-expressing single cells that were visibly contracting were chosen for experiments. Patch-clamp measurements were made by a patch-clamp amplifier (Model 2400, A-M Systems, Inc) controlled by the Real Time eXperiment Interface (RTXI) to coordinate the amplifier via the data acquisition card (PCI-6025E, National Instruments). The voltage was corrected for the calculated liquid junction potential of −2.8 mV. RTXI was also used to control the LED light intensity. The series resistance was less than 10 MΩ and was not compensated.
To test the feasibility of using ArchT to inject a target current, stimulated action potentials under the EDC system were compared to those of the ODC platform at three different pacing frequencies: 0.5, 1 and 2 Hz. The cells were stimulated 10 times at 0.5, 1 and 2 Hz sequentially under three conditions (the order of which was randomized): (A) control, in which no additional current was added, (B) addition of Itarget with EDC, and (C) and addition of Itarget with ODC.
After the cells had undergone the aforementioned pacing protocol under the same three conditions, 500 nM E-4031 (a class III antiarrhythmic drug that blocks potassium channels, primarily of the human ether-a-go-go related gene (hERG) type) was perfused into the bath containing the coverslip of iPSC-CMs for 2 minutes. Experiments were again conducted under the same pacing protocol and conditions to measure the effect of IKr inhibition. […]

Cc1cccc(CCN2CCC(C(=O)c3ccc(NS(C)(=O)=O)cc3)CC2)n1 [E-4031]
APD with E-4031 addition (500 nM E-4031, example cell 13 paced at 0.5 Hz, control, EDC and ODC conditions, FIG. 6A-C): increases
drug-induced APD prolongation, control (without dynamic clamp) cells compared to EDC and ODC (500 nM E-4031, paced at 0.5 Hz): more dramatic
triangulation (APD90-APD30), control (without dynamic clamp) cells compared to EDC and ODC (500 nM E-4031, paced at 0.5 Hz): larger
APD90 after E-4031 addition (paced at 0.5 Hz, Itarget (IK1) added with EDC): increased
APD90 after E-4031 addition (paced at 0.5 Hz, Itarget (IK1) added with ODC): increased
APD90 after E-4031 addition (paced at 0.5 Hz, control (no current addition)): increased
